Each structure is given as a SMILES string.

T1 sequence (Q9UKE5 1-367 limits assumed): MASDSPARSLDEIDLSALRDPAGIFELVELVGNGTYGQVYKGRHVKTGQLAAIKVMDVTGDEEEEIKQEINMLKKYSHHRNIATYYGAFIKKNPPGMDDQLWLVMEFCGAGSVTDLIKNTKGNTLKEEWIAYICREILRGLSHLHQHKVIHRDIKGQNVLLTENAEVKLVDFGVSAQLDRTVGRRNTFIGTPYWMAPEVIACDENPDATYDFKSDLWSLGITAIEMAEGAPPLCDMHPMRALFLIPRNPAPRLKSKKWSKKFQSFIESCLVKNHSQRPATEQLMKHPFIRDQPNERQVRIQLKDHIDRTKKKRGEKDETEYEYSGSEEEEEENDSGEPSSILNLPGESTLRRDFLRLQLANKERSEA

One test has as its target T1, TNIK (Homo sapiens, UniProt Q9UKE5).
T1 construct: purchased Promega V4158
As to the kind of experiment: ADP-Glo Kinase Assay, inhibition activity on TNIK. Format: biochemical.
Conditions: not given
On the procedure: The inhibition activities on TNIK, IKKε and TBK1 were measured by a luminometer, TNIK/IKKε/TBK1 Kinase Enzyme System (Promega, Ca# V4158; Invitrogen, PR8031B, Promega, Ca# V3991) and ADP-Glo Kinase Assay using ADP-Glo™ Kinase Analysis Kit (Promega, Ca# V9101) and a kinase reaction buffer [40 mM Tris(pH 7.5), 20 mM MgCl2, 0.1 mg/mL BSA] in accordance with the manufacturer's protocol.
For the compound `O=C(Nc1ccc(-c2ccccc2)c2c1C(=O)NC2)c1ccc(Cl)c(Cl)c1` [Example 104, 3,4-Dichloro-N-(3-oxo-7-phenylisoindolin-4-yl)benzamide], the “TNIK (μM)” value is on record as “Insoluble”.

The same test, now with this note: read-out: TNIK.
As to `CN1CCN(CCNc2ccc(C(=O)Nc3ccc(-c4cccs4)c4c3C(=O)NC4)cc2)CC1` [Example 378, 4-((2-(4-Methylpiperazin-1-yl)ethyl)amino)-N-(3-oxo-7-(thiophen-2-yl)isoindolin-4-yl)benzamide], the IC50 worked out at 0.13 µM. With `COC(=O)c1cccc(-c2ccc(NC(=O)c3ccccc3)c3c2CNC3=O)c1` [Example 9, methyl 3-(7-benzamido-1-oxoisoindolin-4-yl)benzo ate], the IC50 is above 20 µM.

In the case of `COc1cccc(-c2ccc(NC(=O)c3ccc(NCCN4CCCCC4)cc3)c3c2CNC3=O)c1OC` [Example 298, N-(7-(2,3-dimethoxyphenyl)-3-oxoisoindolin-4-yl)-4-((2-(piperidin-1-yl)ethyl)amino)benzamide], the IC50 was determined as 0.078 µM.

As to `O=C(Nc1ccc(C(=O)O)c2c1C(=O)NC2)c1ccc(F)cc1` [Example 388, 7-(4-Fluorobenzamido)-1-oxoisoindoline-4-carboxylic acid], the IC50 came out at 3.89 µM. The same measure, in the same setting: for `COc1ccccc1-c1ccc(NC(=O)c2ccccc2)c2c1CNC2=O` [Example 144, N-(7-(2-methoxyphenyl)-3-oxoisoindolin-4-yl)benzamide] the value was 0.7 µM; for `O=C(Nc1ccc(-c2ccccc2)c2c1C(=O)NC2)c1ccc(OCCN2CCOCC2)cc1` [Example 345, 4-(2-Morpholinoethoxy)-N-(3-oxo-7-phenylisoindolin-4-yl) benzamide], 1.14 µM; for `COCCNc1ccc(C(=O)Nc2ccc(-c3ccccc3OC)c3c2C(=O)NC3)cc1` [Example 324, 4-((2-Methoxyethyl)amino)-N-(7-(2-methoxyphenyl)-3-oxoisoindolin-4-yl)benzamide], 0.3 µM. Same read-out and setting: for `O=C1NCc2c(-c3ccccc3)ccc(NCc3ccccc3)c21` [Example 263, 7-(Benzylamino)-4-phenylisoindolin-1-one] the value was above 20 µM; for `COc1ccccc1-c1ccc(NC(=O)c2ccc(NCCO)cc2)c2c1CNC2=O` [Example 352, 4-((2-Hydroxyethyl)amino)-N-(7-(2-methoxyphenyl)-3-oxoisoindolin-4-yl)benzamide], 0.084 µM; for `O=C(Nc1ccc(-c2ccccc2)c2c1C(=O)NC2)c1ccccc1F` [Example 142, 2-Fluoro-N-(3-oxo-7-phenylisoindolin-4-yl)benzamide], 0.95 µM. Same read-out and setting: for `CCCCc1ccc(NC(=O)c2ccccc2)c2c1CNC2=O` [Example 35, N-(7-butyl-3-oxoisoindolin-4-yl)benzamide] the value was 8.6 µM. For `COc1cccc(C(=O)Nc2ccc(Nc3ccccc3)c3c2C(=O)NC3)c1` [Example 434, 3-Methoxy-N-(3-oxo-7-(phenylamino)isoindolin-4-yl) benzamide], the IC50 was 0.67 µM. Still for that read-out and setting: with `CN(C)CCCNc1ccc(C(=O)Nc2ccc(-c3ccccc3O)c3c2C(=O)NC3)cc1` [Example 351, 4-((3-(Dimethylamino)propyl)amino)-N-(7-(2-hydroxyphenyl)-3-oxoisoindolin-4-yl)benzamide] the figure was 0.96 µM; with `CS(=O)(=O)c1ccc(-c2ccc(NC(=O)c3ccccc3)c3c2CNC3=O)cc1` [Example 167, N-(7-(4-(methylsulfonyl)phenyl)-3-oxoisoindolin-4-yl) benzamide], 9.8 µM.

On to `CC(C)(O)c1ccc(NC(=O)c2ccc(NCCN3CCCC3)cc2)c2c1CNC2=O` [Example 394, N-(7-(2-hydroxypropan-2-yl)-3-oxoisoindolin-4-yl)-4-((2-(pyrrolidin-1-yl)ethyl)amino)benzamide], for which the IC50 is 5.44 µM.

`Cc1ccc(C(=O)Nc2ccc(-c3ccccc3)c3c2C(=O)NC3)cc1` [Example 89, 4-Methyl-N-(3-oxo-7-phenylisoindolin-4-yl)benzamide]: the IC50 turned out to be 0.77 µM. Still for that read-out and setting: for `COc1cccc(-c2ccc(NC(=O)c3ccc(NCCCN4CCCCC4)cc3)c3c2CNC3=O)c1OC` [Example 308, N-(7-(2,3-dimethoxyphenyl)-3-oxoisoindolin-4-yl)-4-((3-(piperidin-1-yl)propyl)amino)benzamide] the value was 0.053 µM; for `O=C(Nc1ccc(-c2ccccc2)c2c1C(=O)NCC2)c1ccc(NCCN2CCCC2)cc1` [Example 401, N-(1-oxo-5-phenyl-1,2,3,4-tetrahydroisoquinolin-8-yl)-4-((2-(pyrrolidin-1-yl)ethyl)amino)benzamide], 2.15 µM.

As for `O=C(Nc1ccc(Nc2cccc(Cl)c2)c2c1C(=O)NC2)c1ccc(F)cc1` [Example 418, N-(7-((3-chlorophenyl)amino)-3-oxoisoindolin-4-yl)-4-fluorobenzamide], the IC50 is 1.17 µM. As for `Cc1ccc(-c2ccc(N)c3c2CNC3=O)cc1` [Example 63, 7-Amino-4-(p-tolyl)isoindolin-1-one], the IC50 is above 20 µM. On to `O=C(Nc1ccc(Nc2ccccc2)c2c1C(=O)NC2)c1ccccc1` [Example 409, N-(3-oxo-7-(phenylamino)isoindolin-4-yl)benzamide], for which the IC50 turned out to be 0.32 µM. Consider `O=C(Nc1ccc(-c2cccc3ncoc23)c2c1C(=O)NC2)c1ccc(NCCCN2CCCCC2)cc1` [Example 343, N-(7-(benzo[d]oxazol-7-yl)-3-oxoisoindolin-4-yl)-4-((3-(piperidin-1-yl)propyl)amino)benzamide], for which the IC50 amounted to 0.042 µM. On the same count and under the same terms, with `O=C(Nc1ccc(F)cc1)Nc1ccc(-c2ccccc2)c2c1C(=O)NC2` [Example 226, 1-(4-Fluorophenyl)-3-(3-oxo-7-phenylisoindolin-4-yl)urea] the figure was 2.5 µM. As for `CCCCOc1ccccc1-c1ccc(NC(=O)c2ccccc2)c2c1CNC2=O` [Example 45, N-(7-(2-butoxyphenyl)-3-oxoisoindolin-4-yl)benzamide], the IC50 is above 20 µM. `O=C(Nc1ccc(-c2ccccc2)c2c1C(=O)NC2)c1ccccc1Cl` [Example 201, 2-Chloro-N-(3-oxo-7-phenylisoindolin-4-yl)benzamide]: the IC50 is 15.2 µM. On to `CNC(=O)c1ccc(NC(=O)c2ccc(NCCN3CCCC3)cc2)c2c1CNC2=O` [Example 390, N-methyl-1-oxo-7-(4-((2-(pyrrolidin-1-yl)ethyl)amino)benzamido)isoindoline-4-carboxamide], for which the IC50 was 3.87 µM.

Take `O=C(Nc1ccc(-c2ccco2)c2c1C(=O)NC2)c1ccc(F)cc1` [Example 158, 4-Fluoro-N-(7-(furan-2-yl)-3-oxoisoindolin-4-yl)benzamide]: the IC50 is 1.27 µM. In the case of `CCc1ccccc1-c1ccc(NC(=O)c2ccccc2)c2c1CNC2=O` [Example 1, N-(7-(2-ethylphenyl)-3-oxoisoindolin-4-yl)benzamide], the IC50 is 3.1 µM. On the same count and under the same terms, with `O=C(Nc1ccc(-c2cccc(OC(F)(F)F)c2)c2c1C(=O)NC2)c1ccccc1` [Example 5, N-(3-oxo-7-(3-(trifluoromethoxy)phenyl)isoindolin-4-yl)benzamide] the figure was above 20 µM; with `CC(=O)c1ccc(NC(=O)Nc2ccc(-c3ccccc3)c3c2C(=O)NC3)cc1` [Example 237, 1-(4-Acetylphenyl)-3-(3-oxo-7-phenylisoindolin-4-yl)urea], 4.9 µM; with `O=C1NCc2c(-c3ccccc3)ccc(NC(=S)Nc3ccccc3)c21` [Example 247, 1-(3-Oxo-7-phenylisoindolin-4-yl)-3-phenylthiourea], above 20 µM. Same read-out and setting: for `O=C(Nc1ccc(-c2ccccc2)c2c1C(=O)NC2)c1ccc(F)c(F)c1` [Example 92, 3,4-Difluoro-N-(3-oxo-7-phenylisoindolin-4-yl)benzamide] the value was above 20 µM; for `Cc1ccc(C(=O)Nc2ccc(-c3ccccc3)c3c2C(=O)NC3)cc1C` [Example 93, 3,4-Dimethyl-N-(3-oxo-7-phenylisoindolin-4-yl)benzamide], 1.1 µM. As to `O=C(Nc1ccc(-c2ccco2)c2c1C(=O)NC2)c1ccc(NCCO)cc1` [Example 292, N-(7-(furan-2-yl)-3-oxoisoindolin-4-yl)-4-((2-hydroxyethyl)amino)benzamide], the IC50 was 0.47 µM. With `O=C(Nc1ccc(Nc2cccnc2)c2c1C(=O)NC2)c1ccc(F)cc1` [Example 427, 4-Fluoro-N-(3-oxo-7-(pyridin-3-ylamino)isoindolin-4-yl) benzamide], the IC50 stood at 0.62 µM. For the compound `COc1cccc(-c2ccc(NC(=O)c3cccs3)c3c2CN(C(=O)c2cccs2)C3=O)c1OC` [Example 225, N-(7-(2,3-dimethoxyphenyl)-3-oxo-2-(thiophene-2-carbonyl)isoindolin-4-yl)thiophene-2-carboxamide], the IC50 was above 20 µM.

Take `O=C(Nc1ccc(-c2ccccc2)c2c1C(=O)NC2)c1ccc(NCCO)cc1` [Example 380, 4-((2-Hydroxyethyl)amino)-N-(3-oxo-7-phenylisoindolin-4-yl) benzamide]: the IC50 stood at 0.23 µM. Same read-out and setting: for `CCCc1ccc(-c2ccc(NC(=O)c3ccccc3)c3c2CNC3=O)cc1` [Example 188, N-(3-oxo-7-(4-propylphenyl)isoindolin-4-yl)benzamide] the value was above 20 µM; for `O=C(Nc1ccc(Cl)cc1)Nc1ccc(-c2ccccc2)c2c1C(=O)NC2` [Example 243, 1-(4-Chlorophenyl)-3-(3-oxo-7-phenylisoindolin-4-yl)urea], 3.9 µM. For `CN(C)c1ccc(C(=O)Nc2ccc(-c3ccccc3)c3c2C(=O)NC3)cc1` [Example 139, 4-(Dimethylamino)-N-(3-oxo-7-phenylisoindolin-4-yl) benzamide], the IC50 was 1.8 µM. As to `CN(C)CCNc1ccc(C(=O)Nc2ccc(Nc3ccccc3)c3c2C(=O)NC3)cc1` [Example 441], the IC50 came to 0.24 µM. Take `O=C(Nc1ccc(-c2ccccc2)c2c1C(=O)NC2)c1sccc1Br` [Example 157, 3-Bromo-N-(3-oxo-7-phenylisoindolin-4-yl)thiophene-2-carboxamide]: the IC50 was 3.4 µM.

Source of the values: patent US9856216B2, “Compounds as TNIK, IKKε and TBK1 inhibitors and pharmaceutical composition comprising same” (GREEN CROSS CORPORATION, priority 2015, dated 2018).
